This is an account of results in US20240317744A1, “Bicyclic Ureas As Kinase Inhibitors” (Incyte Corporation, priority 2023, published 2024).

The target in assay [1] is catalytic domain (JH1, amino acids 808-1132) of human JAK2 (Homo sapiens, UniProt O60674). Briefly: JAK2 HTRF Enzyme Activity Assay. The settings on record: ATP 30 µM, 60 minutes at 25° C.; read-out: V617F ENZ 30 UM. Type of assay: biochemical.
For assay [2], the target named is T1, pseudo-kinase domain (JH2, amino-acids 536-812) of human V617F mutant JAK2 (Homo sapiens, UniProt O60674, F794H/V617F/W659A/W777A).
T1 construct: pseudo-kinase domain (JH2, amino-acids 536-812 with 3 surface mutations W659A, W777A, F794H); His (C); purchased BPS Bioscience 79498; host or cells: baculovirus expression system
Briefly: JAK2 LanthaScreen JH2-V617F Binding Assay. The settings on record: JAK2 JH2-V617F 0.26 nM, 50 nM tracer, 1 hour at 25° C.; read-out: JH2 BIND V617F. Here is the method: Example C. JAK2 LanthaScreen JH2-V617F Binding Assay
JAK2 JH2-V617F binding assay utilizes pseudo-kinase domain (JH2, amino-acids 536-812 with 3 surface mutations W659A, W777A, F794H) of human V617F mutant JAK2 expressed as C-terminal His-Avi-tagged, biotinylated protein in a baculovirus expression system (BPS Bioscience, Catalog #79498). The assay was conducted in black 384-well polystyrene plates in a final reaction volume of 20 μL. JAK2 JH2-V617F (0.26 nM) was incubated with compounds (100 nL serially diluted in DMSO) in the presence of 50 nM Fluorescent JAK2-JH2 Tracer (MedChem Express Catalog #HY-102055) and 0.25 nM Streptavidin-Tb cryptate (Cisbio Part #610SATLB) in assay buffer (50 mM Tris, pH=7.5, 10 mM MgCl2, 0.01% Brij-35, 0.1% BSA, 1 mM EGTA, 5% Glycerol and 5 mM DTT). Non-specific binding was accessed in the presence of 2 mM ATP. After incubation for 1 hour at 25° C., LanthaScreen signals were read on a PHERAstar FS plate reader (BMG LABTECH). Data was analyzed with IDBS XLfit and GraphPad Prism 5.0 software using a four parameter dose response curve to determine IC50 for each compound.
In general terms: Time-resolved FRET reads energy transfer from a long-lived donor to a nearby acceptor.

Where only a bound is given, the exact number is not on record here.

Sequence of catalytic domain (JH1, amino acids 808-1132) of human JAK2 (O60674 808-1132 limits assumed): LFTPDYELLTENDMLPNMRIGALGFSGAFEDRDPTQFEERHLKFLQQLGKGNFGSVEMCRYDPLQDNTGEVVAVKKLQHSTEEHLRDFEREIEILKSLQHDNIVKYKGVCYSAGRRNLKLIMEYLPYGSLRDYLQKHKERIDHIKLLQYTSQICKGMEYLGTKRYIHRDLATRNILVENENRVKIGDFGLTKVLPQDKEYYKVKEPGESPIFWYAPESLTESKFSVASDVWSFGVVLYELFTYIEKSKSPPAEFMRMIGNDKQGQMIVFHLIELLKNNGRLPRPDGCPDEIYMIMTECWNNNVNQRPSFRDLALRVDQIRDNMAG
T1 sequence (O60674 536-812 V617F/W659A/W777A/F794H): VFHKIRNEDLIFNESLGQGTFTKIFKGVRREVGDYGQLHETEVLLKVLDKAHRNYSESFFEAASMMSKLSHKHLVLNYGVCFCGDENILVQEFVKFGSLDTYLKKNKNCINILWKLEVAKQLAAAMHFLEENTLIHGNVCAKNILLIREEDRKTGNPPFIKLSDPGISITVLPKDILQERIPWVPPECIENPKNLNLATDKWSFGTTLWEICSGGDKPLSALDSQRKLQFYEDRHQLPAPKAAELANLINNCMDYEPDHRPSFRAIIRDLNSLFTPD

As to `[2H]C1(NC(=O)OC)CC[C@@H](n2c(=O)n(C([2H])([2H])[2H])c3cnc(Nc4cc(C(C)(C)O)c5ccn(-c6cnn(C(F)(F)F)c6)c5n4)cc32)C1` (stereo partly drawn) [Example 131, Methyl ((3R)-3-(6-((4-(2-hydroxypropan-2-yl)-1-(1-(trifluoromethyl)-1H-pyrazol-4-yl)-1H-pyrrolo[2,3-b]pyridin-6-yl)amino)-3-(methyl-d3)-2-oxo-2,3-dihydro-1H-imidazo[4,5-c]pyridin-1-yl)cyclopentyl-1-d)carbamate], the IC50 in assay [1] is over 1000 nM; in assay [2] it was at most 10 nM.
Regarding `[2H]C1(NC(=O)OC)CC[C@@H](n2c(=O)n(C([2H])([2H])[2H])c3cnc(Nc4ccc5c(n4)c(-c4cnn(C(F)(F)F)c4)nn5C4CCOCC4)cc32)C1` (stereo partly drawn) [Example 132, Methyl ((3R)-3-(3-(methyl-d3)-2-oxo-6-((1-(tetrahydro-2H-pyran-4-yl)-3-(1-(trifluoromethyl)-1H-pyrazol-4-yl)-1H-pyrazolo[4,3-b]pyridin-5-yl)amino)-2,3-dihydro-1H-imidazo[4,5-c]pyridin-1-yl)cyclopentyl-1-d)carbamate], the IC50 in assay [1] is over 1000 nM; in assay [2], at most 10 nM.
In the same order, the values of `[2H]C1(NC(=O)OC)CC[C@@H](n2c(=O)n(C([2H])([2H])[2H])c3cnc(Nc4ccc5c(n4)c(-c4cnn(C(F)(F)F)c4)nn5CC4(C#N)CC4)cc32)C1` (stereo partly drawn) [Example 133, Methyl ((3R)-3-(6-((1-((1-cyanocyclopropyl)methyl)-3-(1-(trifluoromethyl)-1H-pyrazol-4-yl)-1H-pyrazolo[4,3-b]pyridin-5-yl)amino)-3-(methyl-d3)-2-oxo-2,3-dihydro-1H-imidazo[4,5-c]pyridin-1-yl)cyclopentyl-1-d)carbamate] are over 1000 nM and at most 10 nM.
In the case of `[2H]C1(NC(=O)OC)CC[C@@H](n2c(=O)n(C([2H])([2H])[2H])c3cnc(Nc4ccc5nn(CC6(C#N)CC6)c(-c6cnn(C(F)(F)F)c6)c5n4)cc32)C1` (stereo partly drawn) [Example 134, Methyl ((3R)-3-(6-((2-((1-cyanocyclopropyl)methyl)-3-(1-(trifluoromethyl)-1H-pyrazol-4-yl)-2H-pyrazolo[4,3-b]pyridin-5-yl)amino)-3-(methyl-d3)-2-oxo-2,3-dihydro-1H-imidazo[4,5-c]pyridin-1-yl)cyclopentyl-1-d)carbamate], the IC50 in assay [1] was over 1000 nM; in assay [2], at most 10 nM.
Taken in the same sequence, the figures for `[2H]C([2H])([2H])n1c(=O)n([C@@H]2CC[C@](C)(NC(C)=O)C2)c2cc(Nc3cc(C(C)(C)O)cc(-c4ncc(Cl)s4)n3)ncc21` [Example 136, N-((1S,3R)-3-(6-((6-(5-Chlorothiazol-2-yl)-4-(2-hydroxypropan-2-yl)pyridin-2-yl)amino)-3-(methyl-d3)-2-oxo-2,3-dihydro-1H-imidazo[4,5-c]pyridin-1-yl)-1-methylcyclopentyl)acetamide] were over 1000 nM and at most 10 nM.
Taken in the same sequence, the figures for `[2H]C([2H])([2H])NC(=O)C12CCC(n3c(=O)n(C([2H])([2H])[2H])c4cnc(Nc5cc(C(C)(C)O)cc(-c6ncc(C(F)(F)F)s6)n5)cc43)(CC1)CC2` [Example 137, 4-(6-((4-(2-Hydroxypropan-2-yl)-6-(5-(trifluoromethyl)thiazol-2-yl)pyridin-2-yl)amino)-3-(methyl-d3)-2-oxo-2,3-dihydro-1H-imidazo[4,5-c]pyridin-1-yl)-N-(methyl-d3)bicyclo[2.2.2]octane-1-carboxamide] were over 1000 nM and at most 10 nM.
Take `[2H]C([2H])([2H])n1c(=O)n(C23CCC(C(=O)NC4CC4)(CC2)CC3)c2cc(Nc3cc(C(C)(C)O)cc(-c4ncc(C(F)(F)F)s4)n3)ncc21` [Example 138, N-Cyclopropyl-4-(6-((4-(2-hydroxypropan-2-yl)-6-(5-(trifluoromethyl)thiazol-2-yl)pyridin-2-yl)amino)-3-(methyl-d3)-2-oxo-2,3-dihydro-1H-imidazo[4,5-c]pyridin-1-yl)bicyclo[2.2.2]octane-1-carboxamide]: the IC50 was over 1000 nM in assay [1] and at most 10 nM in assay [2].
Taken in the same sequence, the figures for `[2H]C([2H])([2H])n1c(=O)n(C23CCC(C(N)=O)(CC2)CC3)c2cc(Nc3cc(C(C)(C)O)cc(-c4ncc(C(F)(F)F)s4)n3)ncc21` [Example 139, 4-(6-((4-(2-Hydroxypropan-2-yl)-6-(5-(trifluoromethyl)thiazol-2-yl)pyridin-2-yl)amino)-3-(methyl-d3)-2-oxo-2,3-dihydro-1H-imidazo[4,5-c]pyridin-1-yl)bicyclo[2.2.2]octane-1-carboxamide] were over 1000 nM and at most 10 nM.
Taken in the same sequence, the figures for `[2H]C([2H])([2H])n1c(=O)n(C23CCC(NC(C)=O)(CC2)CC3)c2cc(Nc3cc(C(C)(C)O)cc(-c4ncc(C(F)(F)F)s4)n3)ncc21` [Example 140, N-(4-(6-((4-(2-Hydroxypropan-2-yl)-6-(5-(trifluoromethyl)thiazol-2-yl)pyridin-2-yl)amino)-3-(methyl-d3)-2-oxo-2,3-dihydro-1H-imidazo[4,5-c]pyridin-1-yl)bicyclo[2.2.2]octan-1-yl)acetamide] were over 1000 nM and at most 10 nM.
Consider `[2H]C([2H])([2H])n1c(=O)n(C23CCC(C(N)=O)(CC2)C3)c2cc(Nc3cc(C(C)(C)O)cc(-c4ncc(C(F)(F)F)s4)n3)ncc21` [Example 141, 4-(6-((4-(2-Hydroxypropan-2-yl)-6-(5-(trifluoromethyl)thiazol-2-yl)pyridin-2-yl)amino)-3-(methyl-d3)-2-oxo-2,3-dihydro-1H-imidazo[4,5-c]pyridin-1-yl)bicyclo[2.2.1]heptane-1-carboxamide], for which the IC50 was over 1000 nM in assay [1] and at most 10 nM in assay [2].
In the same order, the values of `[2H]C([2H])([2H])n1c(=O)n(C23CCC(NC(C)=O)(CC2)C3)c2cc(Nc3cc(C(C)(C)O)cc(-c4ncc(C(F)(F)F)s4)n3)ncc21` [Example 142, N-(4-(6-((4-(2-Hydroxypropan-2-yl)-6-(5-(trifluoromethyl)thiazol-2-yl)pyridin-2-yl)amino)-3-(methyl-d3)-2-oxo-2,3-dihydro-1H-imidazo[4,5-c]pyridin-1-yl)bicyclo[2.2.1]heptan-1-yl)acetamide] are over 1000 nM and at most 10 nM.
Taken in the same sequence, the figures for `[2H]C([2H])([2H])n1c(=O)n([C@@H]2CC[C@](C)(NC(=O)CC)C2)c2cc(Nc3cc(C(C)(C)O)cc(-c4ncc(C(F)(F)F)s4)n3)ncc21` [Example 143, N-((1S,3R)-3-(6-((4-(2-Hydroxypropan-2-yl)-6-(5-(trifluoromethyl)thiazol-2-yl)pyridin-2-yl)amino)-3-(methyl-d3)-2-oxo-2,3-dihydro-1H-imidazo[4,5-c]pyridin-1-yl)-1-methylcyclopentyl)propionamide] were over 1000 nM and at most 10 nM.
Take `[2H]C([2H])([2H])n1c(=O)n([C@@H]2CC[C@](C)(NC(C)=O)C2)c2cc(Nc3cc(C(C)(C)O)cc(-c4cnc(C(F)(F)F)s4)n3)ncc21` [Example 146, N-((1S,3R)-3-(6-((4-(2-Hydroxypropan-2-yl)-6-(2-(trifluoromethyl)thiazol-5-yl)pyridin-2-yl)amino)-3-(methyl-d3)-2-oxo-2,3-dihydro-1H-imidazo[4,5-c]pyridin-1-yl)-1-methylcyclopentyl)acetamide]: the figures for the IC50 in assay [1] and in assay [2] were over 1000 nM and at most 10 nM, respectively.
On to `[2H]C([2H])([2H])n1c(=O)n([C@@H]2CC[C@@]([2H])(NC(=O)OC)C2)c2cc(Nc3cc(C(C)(C)O)cc(-c4ncc(C(O)(C(F)(F)F)C(F)(F)F)s4)n3)ncc21` [Example 147, Methyl ((1R,3R)-3-(6-((6-(5-(1,1,1,3,3,3-hexafluoro-2-hydroxypropan-2-yl)thiazol-2-yl)-4-(2-hydroxypropan-2-yl)pyridin-2-yl)amino)-3-(methyl-d3)-2-oxo-2,3-dihydro-1H-imidazo[4,5-c]pyridin-1-yl)cyclopentyl-1-d)carbamate], for which the IC50 in assay [1] is over 1000 nM; in assay [2] it was at most 10 nM.
In the same order, the values of `[2H]C([2H])([2H])n1c(=O)n([C@@H]2CC[C@@]([2H])(NC(=O)OC)C2)c2cc(Nc3cc(C)cc(-c4ncc(C(C)(C)O)s4)n3)ncc21` [Example 148, Methyl ((1R,3R)-3-(6-((6-(5-(2-hydroxypropan-2-yl)thiazol-2-yl)-4-methylpyridin-2-yl)amino)-3-(methyl-d3)-2-oxo-2,3-dihydro-1H-imidazo[4,5-c]pyridin-1-yl)cyclopentyl-1-d)carbamate] are over 1000 nM and at most 10 nM.
Regarding `[2H]C([2H])([2H])n1c(=O)n([C@@H]2CC[C@@]([2H])(NC(=O)OC)C2)c2cc(Nc3cc(C)c(F)c(-c4ncc(C(C)(C)O)s4)n3)ncc21` [Example 149, Methyl ((1R,3R)-3-(6-((5-fluoro-6-(5-(2-hydroxypropan-2-yl)thiazol-2-yl)-4-methylpyridin-2-yl)amino)-3-(methyl-d3)-2-oxo-2,3-dihydro-1H-imidazo[4,5-c]pyridin-1-yl)cyclopentyl-1-d)carbamate], the figures for the IC50 in assay [1] and in assay [2] were over 1000 nM and at most 10 nM, respectively.
